# Data as given in paper PMC10232258 (Journal of Antimicrobial Chemotherapy, 2023).
# Key:
# [1] = Population PK analysis; assay type: in vivo, human; details: for CLTFV: full model
# [2] = average of five clinical studies (Table S4)
# [3] = ref Yager et al. 50; cited from earlier work
# [4] = cited from earlier work
# [5] = test system: HIV-1; details: background statement; cited from earlier work
# [6] = full final model, bootstrap median
compound,measurement,setting,value
CC(C)OC(=O)[C@H](C)N[P@](=O)(CO[C@H](C)Cn1cnc2c(N)ncnc21)Oc1ccccc1 [tenofovir alafenamide],Increase of relative bioavailability F (absorption of TAF) by cobicistat,[1]; TAF 10 mg with cobicistat versus 25 mg alone (F = 1),115%
same,"Higher intracellular exposure in tenofovir diphosphate, TAF versus TDF",[2],six-fold
same,"Tenofovir diphosphate levels, TAF once every 3 days versus TDF every day",[3],2.6 times
same,Lower plasma levels of tenofovir under standard TAF versus TDF dosage,[4],90%
same,Potency relative to tenofovir disoproxil fumarate,[5],10 times
C[C@H](Cn1cnc2c(N)ncnc21)OCP(=O)(O)O [tenofovir],CLTFV,[1]; 80-year-olds,36 L/h
same,CLTFV lower than in normal kidney function,[1]; CLCR of 20 mL/min (stage 3 CKD) versus normal kidney function,57%
same,"CLTFV, apparent clearance of tenofovir","[1]; base model, ka fixed to 2 h−1",39.9 L/h
same,"θAge, age effect on CLTFV",[1]; [6],−0.242
same,"θBlack or Hispano American, ethnicity effect on CLTFV",[1]; [6],0.120
same,"θCobicistat, effect of cobicistat on F",[1]; [6],1.16
same,"θPotent P-gp inhibitors, effect on CLTFV",[1]; [6],−0.119
same,"CLTFV, apparent clearance of tenofovir","[1]; full final model, bootstrap median (n = 2000 samples)",42.3 L/h
same,"θBlack or Hispano American, ethnicity effect on CLTFV","[1]; full final model, estimate",0.119
same,"θPotent P-gp inhibitors, effect on CLTFV","[1]; full final model, estimate",−0.121
same,"θAge, age effect on CLTFV","[1]; full final model, estimate, Agemedian = 51 years",−0.244
same,"CLTFV, apparent clearance of tenofovir","[1]; full final model, estimate, CLCR-ref 100 mL/min, median age 51 years",42.2 L/h
same,"VTFV, apparent volume of distribution of tenofovir","[1]; full final model, estimate, PLWH after oral TAF",2390 L
same,Tmax,"[1]; human, plasma, oral",2.4 h
same,half-life,"[1]; human, plasma, oral",46 h
same,Vd,"[1]; human, plasma, oral, VTFV, apparent volume of distribution of tenofovir, full final model, bootstrap median (n = 2000 samples)",2400 L
same,CLTFV,[1]; individuals with CLCR of 20 mL/min (stage 3 CKD),18 L/h
same,CLTFV,[1]; normal kidney function,42 L/h
same,CLTFV,"[1]; younger PLWH, median age 51 years",42 L/h
